Assay results from patent US4693884A, “Technetium-99m triphosphonates and tetraphosphonates for the scintigraphic visualization of res-containing organs and lymph vessels, and a process for their preparation” (Hoechst Aktiengesellschaft, priority 1982, dated 1987).

Legend:
[1] = Comparison of 99mTc TPB, 99mTc PTP and 99mTc phytate after intravenous injection to dogs; format: in vivo
[2] = Example 6: distribution of activity over the organs in rats, PTP; format: in vivo, Sprague-Dawley rats; details: 30 min after injection; femoral vein; mean, n=6
Description: 3.5 g of 1,1,3,3-propanetetraphosphonic acid (PTP) are dissolved in 250 ml of double-distilled water, and the solution is adjusted to pH 6 with 1N NaOH. 210 mg of SnCl2.2H2 O, which are dissolved in 4.2 ml of 0.2N HCl, are added to this solution, and the pH is again adjusted to 6. The mixture is made up to 350 ml and individual 1 ml portions are prepared. (All the operations up to preparation of the individual portions are carried out under protective N2 gas.) The contents are frozen and freeze-dried. One unit contains 10 mg of PTP and 0.6 mg of SnCl2.2H2 O.
After storing for some weeks, the lyophilizate is dissolved in 10 ml of physiologic saline which contains 2 mCi of ^99m Tc-pertechnetate. After 30 min, Sprague-Dawley rats (n=6) weighing about 200 g each receive 0.1 ml of this solution injected into the femoral vein. The animals are sacrificed with ether 30 min after injection, and the distribution of the activity over the organs is determined. The mean figures below result (as percentage of the dose administered): […]

[3] = Example 7: elimination from the blood and renal excretion; format: in vivo, dog (beagle)
Description: (§1) A labeling unit prepared as in Example 6 is made ready for injection with 5 ml of physiologic saline containing 10 mCi of ^99m Tc-pertechnetate. 1 ml of this solution is injected into the ear vein of a dog (beagle) weighing 18 kg, and the change in activity with time over the abdominal cavity is followed using a gamma camera by the ROI technique. It emerges that the uptake of activity by the liver is complete after about 10 min. The lung and kidneys are not imaged.
The elimination from the blood and the renal excretion are also determined on the same animal. […] About 2.3% of the administered activity is excreted with the urine within the first 8 hours.

[4] = Example 7: change in activity over the abdominal cavity followed with gamma camera (ROI technique); format: in vivo, dog (beagle); details: ear vein
Description: as §1

[5] = Accumulation of phosphoric acid derivatives investigated as technetium-99m diagnostic agents (bone, liver, RES); details: in vivo
Description: It is possible to use phosphoric acid derivatives, particularly organic phosphonic acid derivatives, for bone scintigraphy. Many compounds have been investigated in the search for derivatives suitable as a technetium-99m diagnostic agent for bone.

[6] = Organ distribution of 99mTc-labeled substances in rats 30 minutes after injection as a function of the amount of substance administered; format: in vivo; details: for Blood/ml / Kidneys / Liver / Lung / Remainder of body / Spleen / Thyroid / tissue uptake at 0.5 h: 30 min after injection, n = 3; for tissue uptake at 0.5 h: rat, femur, iv, 0.05 mg
Description: Assuming that 2-20 mg of TPB, ETP, PTP or phytate are administered to humans, and assuming that the weight of human is 80 kg, this corresponds to an amount administered of 25-250 μg/kg of body weight. Calculating on the basis of the body weight of rats weighing 200 g, then administration of 5-50 μg of TPB, ETP, PTP or phytate per rat exactly reflects the relationships.
Organ distribution of ^99m Tc TPB, ^99m TC ETP and ^99m Tc
phytate in rats (n = 3) 30
minutes after injection as a function of the amount of substance
(all data as a percentage of the amount of activity administered)

[7] = in vivo; cited from earlier work
[8] = second amount column (printed 50 μg)
[9] = third amount column (printed 50 μg)

**Q.** Which results are given for `O=P(O)(O)C(CC(P(=O)(O)O)P(=O)(O)O)P(=O)(O)O` [PTP, propane-1,1,3,3-tetraphosphonic acid]?
**A.** excretion of activity with the urine ([1]; 30 min after injection, intravenous, dogs): 0.05 % of the test dose; excretion of activity with the urine, compared with phytate ([1]; intravenous, dogs): markedly less; decrease in activity via the liver after accumulation in the liver is complete ([1]; intravenous, dogs, compared with phytate): slower; Kidneys [2]: 0.067 percentage of the dose adminis; Liver [2]: 94.0 percentage of the dose adminis; Remainder of body [2]: 4.8 percentage of the dose adminis; Spleen [2]: 1.9 percentage of the dose adminis; Thyroid [2]: 0.034 percentage of the dose adminis; bladder + urine [2]: 0.023 percentage of the dose adminis; blood (1 ml) [2]: 0.083 percentage of the dose adminis; bone [2]: 0.7 percentage of the dose adminis; lungs [2]: 0.23 percentage of the dose adminis; clearance from the blood, half-life t1 ([3]; ear vein, first phase): 3.25 min; share of phase t1 in clearance from the blood ([3]; ear vein, first phase): 97%; clearance from the blood, half-life t2 ([3]; ear vein, second phase): 20.3 min; share of phase t2 in clearance from the blood ([3]; ear vein, second phase): 2.4%; clearance from the blood, half-life t3 ([3]; ear vein, third phase): 500 min; share of phase t3 in clearance from the blood ([3]; ear vein, third phase): 0.6%; administered activity excreted with the urine ([3]; within the first 8 hours): About 2.3 % of the administered activity; time at which uptake of activity by the liver is complete [4]: about 10 min; accumulation in bone [5]: virtually not at all; accumulation in the liver [5]: very preferentially accumulated in the liver; Blood/ml ([6]; (50 μg)): 0.055 percentage of the amount of ac; Kidneys ([6]; (50 μg)): 0.16 percentage of the amount of activity administered; Liver ([6]; (50 μg)): 91.8 percentage of the amount of activity administered; Lung ([6]; (50 μg)): 0.30 percentage of the amount of activity administered; Remainder of body ([6]; (50 μg)): 9.3 percentage of the amount of activity administered; Spleen ([6]; (50 μg)): 1.31 percentage of the amount of activity administered; Thyroid ([6]; (50 μg)): 0.05 percentage of the amount of activity administered; Blood/ml [6, 8]: 0.11 percentage of the amount of ac; Kidneys [6, 8]: 0.37 percentage of the amount of activity administered; Liver [6, 8]: 84.2 percentage of the amount of activity administered; Lung [6, 8]: 0.45 percentage of the amount of activity administered; Remainder of body [6, 8]: 16.0 percentage of the amount of activity administered; Spleen [6, 8]: 1.23 percentage of the amount of activity administered; Thyroid [6, 8]: 0.04 percentage of the amount of activity administered; Blood/ml [6, 9]: 0.086 percentage of the amount of ac; Kidneys [6, 9]: 0.38 percentage of the amount of activity administered; Liver [6, 9]: 82.7 percentage of the amount of activity administered; Lung [6, 9]: 0.43 percentage of the amount of activity administered; Remainder of body [6, 9]: 18.4 percentage of the amount of activity administered; Spleen [6, 9]: 1.10 percentage of the amount of activity administered; Thyroid [6, 9]: 0.05 percentage of the amount of activity administered; accumulation of activity in the kidneys, blood, femur and remainder of the body compared with phytate ([6]; all amounts of substance investigated): clearly lower than with phytate; suitability as diagnostic agent for visualization of RES-containing organs compared with 99mTc phytate ([6]; deduction from the animal experiments): unambiguously superior; tissue uptake at 0.5 h ([6]; (50 μg)): 0.052 %ID/g; tissue uptake at 0.5 h [6, 8]: 0.088 %ID/g; tissue uptake at 0.5 h [6, 9]: 0.089 %ID/g

**Q.** With phytate [reference compound] as the molecule, how does the “excretion of activity with the urine” value ([1]; dog, in vivo, iv, 0.5 h) read?
**A.** Its value is 6.6 % of the test dose.

**Q.** And the “accumulation of activity in the RES” value [7]?
**A.** Its value is “low compared with the products mentioned above”.

**Q.** And the accumulation in bone [5]?
**A.** Its accumulation in bone is “higher”.

**Q.** And the “accumulation in the RES” value [5]?
**A.** Its value is “lower”.
